Test results as given in patent US11701347B2, “Use of 5-fluoro-4-(4-fluoro-2-methoxyphenyl)-N-{4-[(S-methylsulfonimidoyl)methyl]pyridin-2-yl}pyridin-2-amine for treating diffuse large B-cell lymphoma” (Bayer Aktiengesellschaft, priority 2018, dated 2023).

What was measured:
DB = assay: Cell proliferation assay (CellTiter Glo, 72 h); assay type: cell-based; settings: Homo sapiens, DLBCL GCB subtype
Description: (§1) The proliferation of all (DLCBL) cell lines in the presence of different concentrations of Compound A′ or FR compound for 72 h was assessed using CellTiter Glo kits (Promega Corporation, Madison, Wis.). All expressed values were averages of triplicate experiments, and IC50 was calculated using GraphPad Prism 5 (GraphPad Software, San Diego, Calif.) according to the manufacturer's instructions or the MTS software.

HBL1 = assay: Cell proliferation assay (CellTiter Glo, 72 h); assay type: cell-based; settings: HBL1, DLBCL ABC subtype
Description: as §1

HT = assay: Cell proliferation assay (CellTiter Glo, 72 h); assay type: cell-based; settings: Homo sapiens, DLBCL GCB subtype
Description: as §1

OCI-LY-19 = assay: Cell proliferation assay (CellTiter Glo, 72 h); assay type: cell-based; settings: Homo sapiens, OCI-LY19, OCI-LY-19, DLBCL GCB subtype
Description: as §1

OCI-LY-3 = assay: Cell proliferation assay (CellTiter Glo, 72 h); assay type: cell-based; settings: Homo sapiens, OCI-Ly3, OCI-LY-3, DLBCL ABC subtype
Description: as §1

SU-DHL-10 = assay: Cell proliferation assay (CellTiter Glo, 72 h); assay type: cell-based; settings: Homo sapiens, SU-DHL10, SU-DHL-10, DLBCL GCB subtype
Description: as §1

SU-DHL-4 = assay: Cell proliferation assay (CellTiter Glo, 72 h); assay type: cell-based; settings: Homo sapiens, SU-DHL-4, DLBCL GCB subtype
Description: as §1

SU-DHL-5 = assay: Cell proliferation assay (CellTiter Glo, 72 h); assay type: cell-based; settings: Homo sapiens, SU-DHL-5, DLBCL GCB subtype
Description: as §1

SU-DHL-6 = assay: Cell proliferation assay (CellTiter Glo, 72 h); assay type: cell-based; settings: Homo sapiens, SU-DHL-6, DLBCL GCB subtype
Description: as §1

SU-DHL-8 = assay: Cell proliferation assay (CellTiter Glo, 72 h); assay type: cell-based; settings: Homo sapiens, SU-DHL-8, DLBCL GCB subtype
Description: as §1

TMD8 = assay: Cell proliferation assay (CellTiter Glo, 72 h); assay type: cell-based; settings: Homo sapiens, TMD8, DLBCL ABC subtype
Description: as §1

[1] = system: subcutaneous DLBCL OCI-LY-3 xenografts; assay: In vivo efficacy in DLBCL OCI-LY-3 xenograft model; parameters: species or system female SCID mice; settings: 10 mg/kg q7d iv, 14 days, end of experiment
Description: (§2) The aim of the present experiments was to assess the in vivo efficacy and tolerability of Compound A′ in monotherapy in the DLBCL OCI-LY-3 tumour model subcutaneously implanted in SCID mice. In vivo efficacy was determined in female SCID mice bearing subcutaneous DLBCL OCI-LY-3 xenografts. Compound A′ was assessed at one dose level in monotherapy. Anti-tumour activity and tolerability of the treated group was assessed using the vehicle control group as a reference.
(§3) At randomisation, the area of growing tumours was initially determined Animals bearing one tumour of an area of 25-35 mm2 were distributed in experimental groups according to the study protocol. The day of randomisation is designated as day 0 of an experiment Animals either received Compound A′ (formulated in 30% PEG400/10% Ethanol/60%water), at a dose of 10 mg/kg q7d intravenously or vehicle control (qd po) for a period of 14 days.
At the end of the experiment Treatment to Control ratios (T/C) were calculated based on the mean tumor area and the mean tumor weight in the Compound A′ treatment group and in the vehicle control group.

[2] = system: subcutaneous DLBCL SU-DHL-10 xenografts; assay: In vivo efficacy in DLBCL SU-DHL-10 xenograft model; parameters: species or system female SCID mice; settings: 15 mg/kg q7d iv, 16 days, end of experiment
Description: (§4) The aim of the present experiments was to assess the in vivo efficacy and tolerability of Compound A′ in monotherapy in the DLBCL SU-DHL-10 tumour model subcutaneously implanted in SCID mice. In vivo efficacy was determined in female SCID mice bearing subcutaneous DLBCL SU-DHL-10 xenografts. Compound A′ was assessed at one dose level in monotherapy. Anti-tumour activity and tolerability of the treated group was assessed using the vehicle control group as a reference. […] At randomisation, the area of growing tumours was initially determined Animals bearing one tumour of an area of 25-35 mm2 were distributed in experimental groups according to the study protocol. The day of randomisation is designated as day 0 of an experiment Animals either received Compound A′ (formulated in 30% PEG400/10% Ethanol/60%water), at a dose of 15 mg/kg q7d intravenously or vehicle control (q7d iv) for a period of 16 days.
(§5) The maximum body weight loss was −9% in Compound A′ group compared to −4% in the vehicle group indicating moderate tolerability of Compound A′ at a dose of 15 mg/kg q7d iv. At the end of the experiment the Treatment to Control ratios (T/C) was calculated based on the mean tumor area in the Compound A′ treatment group and in the vehicle control group.

[3] = Tolerability in OCI-LY-3 xenograft study; assay type: in vivo; settings: 10 mg/kg q7d iv, 14 days
Description: as §2, §3

[4] = Tolerability in SU-DHL-10 xenograft study; assay type: in vivo, female SCID mice; settings: 15 mg/kg q7d iv, 16 days
Description: as §4, §5

COc1cc(F)ccc1-c1cc(Nc2cc(CS(C)(=N)=O)ccn2)ncc1F (single isomer, unassigned; (+)) [Compound A′, (+)-5-Fluoro-4-(4-fluoro-2-methoxyphenyl)-N-{4-[(S-methylsulfonimidoyl)methyl]pyridin-2-yl}pyridin-2-amine]
IC50 (DB): 88 nM | IC50 (HBL1): 196 nM | IC50 (HT): 81 nM | IC50 (OCI-LY-19): 39 nM | IC50 (OCI-LY-3): 83 nM | IC50 (SU-DHL-10): 129 nM | IC50 (SU-DHL-4): 90 nM | IC50 (SU-DHL-5): 105 nM | IC50 (SU-DHL-6): 37 nM | IC50 (SU-DHL-8): 93 nM | IC50 (TMD8): 100 nM | T/C by area (Treatment to Control ratio, mean tumor area) [1]: 0.29 | T/C by weight (Treatment to Control ratio, mean tumor weight) [1]: 0.24 | T/C by area (Treatment to Control ratio, mean tumor area) [2]: 0.02 | Fatal toxicities [3]: did not occur | maximum body weight loss [3]: −6% | maximum body weight loss [4]: −9%

COc1cc(F)ccc1-c1ncnc(Nc2cccc(CS(C)(=N)=O)c2)n1 (centres unmarked) [FR compound, reference compound]
IC50 (DB): 570 nM | IC50 (HBL1): 540 nM | IC50 (HT): 710 nM | IC50 (OCI-LY-19): 480 nM | IC50 (OCI-LY-3): 340 nM | IC50 (SU-DHL-10): 600 nM | IC50 (SU-DHL-4): 170 nM | IC50 (SU-DHL-6): 360 nM | IC50 (SU-DHL-8): 610 nM
